Assays:
[1] = system: tigecycline resistant Salmonella, E. coli, Acinetobacter and Proteus isolates containing tet(X) genes; assay: Checkerboard assays across the panel of isolates; assay type: cell-based; conditions: against all of the strains tested
Procedure: MIC tests and checkerboard assays were performed in U-bottom, 96-well microtiter plates using a modified broth microdilution protocol following CLSI guidelines. Cation-adjusted Mueller-Hinton Broth (CAMHB) was prepared fresh on the day of testing.[74] In brief, assays were set up in a total volume of 100 μL per well and titrations comprised seven 2-fold dilutions of inhibitors and ten 2-fold dilutions of tigecycline in CAMHB. Bacterial colonies were selected from an overnight culture on MHA plates (supplemented with 0.2%w/vL-arabinose for E. coli TOP10 containing pBAD-TOPO-Tet(X4)) and were suspended in 0.9% saline solution to achieve a 0.5 McFarland standard. A 100 μL aliquot of this suspension was then diluted into 9.9 mL of CAMHB to yield approximately 1.5 × 10^6 cfu mL^−1. 50 μL of the suspension was then added to each well of a microtiter plates. Plates were incubated at 37 °C for 18 h. At least 2 replicates were conducted for each combination. E. coli TOP10 + pBAD-TOPO-Tet(X4) cells were grown in the absence and presence of 0.2%w/vL-arabinose. […] As a measure of synergy, fractional inhibitory concentration index (FICI) was calculated as FICA + FICB, where FICA and FICB are the MICcombination/MICalone for each agent, respectively.[76] […] In cases where the MIC exceeded or was below the measured range, the borderline value was taken to calculate the FIC index.

Tet(X4) = Tet(X4) (Escherichia coli, UniProt A0A3T0V9Y5); assay: Absorbance activity assay (tigecycline turnover, A400); assay type: biochemical
Source text: We then tested the binding of reported type 1 TDase inhibitors to Tet(X4) (Fig. 3f, ESI Fig. S17 ^†).[33,38,39] […] These compounds gave similar apparent IC50^app values, in accord with trends in IC50 measurements performed by Markley et al.[33] […] We also developed a complementary endpoint activity assay where the turnover of tigecycline by Tet(X4) in a 96-well plate was quenched by addition of 1%v/v formic acid and analysed chromatographically. The peak integrals of tigecycline and its hydroxylated degradation product at 254 nm following UPLC analysis were measured to determine turnover (Fig. 5a). As this method separates components by chromatography, it enables IC50 measurements independent of potential interference from UV-active inhibitors (Fig. 5b). […] The apparent synergy of AZT with tetracyclines against whole cells expressing Tet(X4)[40] is therefore interesting and may derive from the proposed ability of AZT to interfere with DNA synthesis in bacteria,[40,53] or other unidentified mechanisms. […] Note, however, that plumbagin and 2-MNQ are naphthoquinones, which are well-characterised redox-active pan-assay interference (PAINS) moieties.[54]
233 Absorbance Activity Assays
234 A solution containing 100 mM TAPS (pH 8.5), 2 µM FAD, 10 mM MgCl2 and 100 nM Tet(X4) was
235 dispensed into a 384 well µClear plate (Greiner Bio-One), 25 µL per well, using a microplate reagent
236 dispenser. A 3-fold, 10-point dilution series of the substrates and inhibitors was made in DMSO with
237 the highest concentration of 50 mM, unless otherwise stated, and transferred to the enzyme solution in
238 technical quadruplicate using a CyBi-Well (CyBio) liquid-handling robot (1 µL per well). On each plate,
239 a column of no enzyme negative controls and no inhibitor (DMSO only) positive controls were
240 included. The plate was briefly centrifuged (1000 rpm), then incubated (ambient temperature,15 min).
241 A solution containing 100 mM TAPS (pH 8.5), 50 µM tigecycline and 500 µM NADPH was then
242 dispensed, with 25 µL per well. The plate was briefly centrifuged (1000 rpm), then transferred to a
243 CLARIOstar Plus Microplate reader. The absorbance was monitored at wavelength […] over the
244 course of 2 hours (23 flashes / cycle, 180 s cycle time, 41 data points, 25 ° C). The initial rate was
245 calculated by measuring the rate of change of A400 during the initial linear regime. Initial rates were
246 normalised between positive and negative controls. The normalised % response was plotted as a
247 function of log10([Inhibitor]) in molar units, and the IC50 was determined as above. […]

Structure (SMILES)	reduction of the tigecycline MIC in combination [1]	IC50 (Tet(X4)) [µM]
[H]/N=C(/NCCCCC)N/N=C/c1c[nH]c2ccc(OC)cc12 [Tegaserod]	2–8 fold	
Cc1c2c(c(O)c3c(O)cccc13)C(=O)[C@]1(O)C(=O)C(C(N)=O)=C(O)[C@@H](N(C)C)[C@@H]1C2 [Anhydrotetracycline]		7.6 ± 2
